According to ChEMBL document CHEMBL1147228, “Dammarane-type triterpenes from the Brazilian medicinal plant Cordia multispicata” (J Nat Prod, 2003):

Test: Antiandrogenic activity assessed as inhibition of testosterone 5alpha reductase at 100 ug/mL
Set-up: scale not given: the % may be the effect or the level left

Row | Compound | Activity
1 | C=C(C)C(O)C(O)/C=C(\C)[C@H]1CC[C@]2(C)[C@@H]1C[C@@H](O)[C@@H]1[C@]34CC[C@](O)(OC3)C(C)(C)[C@@H]4CC[C@]12C (stereo not given in full) | 18%
2 | COC(C)(C)C(O)C(O)/C=C(\C)[C@H]1CC[C@]2(C)[C@@H]1C[C@@H](O)[C@@H]1[C@]34CC[C@](O)(OC3)C(C)(C)[C@@H]4CC[C@]12C (stereo not given in full) | 19%
3 | C/C(=C\C(O)C(O)C(C)(C)O)[C@H]1CC[C@]2(C)[C@@H]1C[C@@H](O)[C@@H]1[C@]34CC[C@](O)(OC3)C(C)(C)[C@@H]4CC[C@]12C (stereo not given in full) | -2.09%

The next lines start with the values.

Row | Activity | Compound
4 | 43.1% | C/C(=C\C(O)C1OC1(C)C)[C@H]1CC[C@]2(C)[C@@H]1C[C@@H](O)[C@@H]1[C@@]3(C)CCC(=O)C(C)(C)[C@@H]3CC[C@]12C (stereo not given in full)
5 | 15.1% | C/C(=C\C(O)C1OC1(C)C)[C@H]1CC[C@]2(C)[C@@H]1C[C@@H](O)[C@@H]1[C@]34CC[C@](O)(OC3)C(C)(C)[C@@H]4CC[C@]12C (stereo not given in full)
